Assay results from patent US20120308570A1, “METHODS FOR TREATING DISEASES” (priority 2009, published 2012).
Peptide text beside a SMILES is read from it. * marks the point of attachment. Cbz = O=C(OCc1ccccc1)*

How the values were obtained:
Assay type in all cases: cell-based, mouse
[1] = tested on: iNOS degradation in Ssb-1T/+ and Ssb-2T/+ BMDM; experiment: iNOS degradation post-wash in SSB transgenic BMDM (Western blot); settings: MG-132 10 μM post-wash
Protocol: FIG. 11. SSB-1 and SSB-2 regulation of iNOS expression is dependent on the proteasome. BMDM from (A) littermate controls (Ssb-1^+/+) and SSB-1-transgenic mice (Ssb-1^T/+) or (B) Ssb-1^+/+ and SSB-2-transgenic mice (Ssb-2^T/+) were incubated with IFNγ and LPS (20 ng/ml) for 16 h, washed, replenished with fresh medium with (+) or without (−) the proteasomal inhibitor MG-132 (10 μM) and lysed at the indicated times post-wash. Proteins were separated by SDS-PAGE and analysed by Western blot using anti-iNOS antibodies. Equivalent protein loading was confirmed by stripping and reprobing the membrane with anti-tubulin antibodies.
Bone marrow-derived macrophages were generated as described and re-plated at 1.0×10^6 cells/well on 6-well plates (Costar) in DME containing 10% FCS and 20% L-cell conditioned media. Cells were incubated with IFNγ and LPS as described, and lysed in KALB lysis buffer (Nicholson et al., 1995) containing protease inhibitors (Complete Cocktail tablets, Roche), 1 mM phenylmethylsulphonyl fluoride, 1 mM Na3VO4 and 1 mM NaF. Proteins were immunoprecipitated using anti-Flag antibody conjugated to Sepharose (M2; EASTMAN KODAK). Proteins were separated by sodium dodecyl sulphatepolyacrylamide gel electrophoresis (SDS-PAGE) under reducing conditions and electrophoretically transferred to Biotrace PVDF membranes (Pall Corp. Ann Arbor, Mich.). […]

Spsb1 mRNA = experiment: Spsb1 knockdown in BMDM by Q-PCR; settings: 10 ng/ml LPS 4 h, compared to non-sense control shRNA, p<0.0001
Protocol: Bone marrow-derived macrophages were generated as described and replated at 1.0×10^6 cells/well on 6-well plates (Costar) in DME containing 10% FCS and 20% L-cell conditioned media. The following day, triplicate cultures were incubated with murine IFNγ (10 ng/ml) and LPS (20 ng/ml), unless otherwise indicated. Total cellular RNA was isolated using the RNeasy kit (QIAGEN, Valencia, Calif.) and first strand cDNA synthesis performed using Superscript II RNASE H— reverse transcriptase (Invitrogen, Carlsbad, Calif.) according to the manufacturer's instructions. Real-time PCR was performed on an ABI Prism 7900HT sequence detection system (Applied Biosystems, Foster City, Calif.). Cycling conditions were as follows: initial denaturation (95° C. for 15 min), followed by 40 cycles of 94° C. for 15 s, 50° C. (SSB-1, -4), 60° C. (SSB-2, -3) or 49° C. (GAPDH) for 30 s and 72° C. for 15 s with a transition rate of 20° C./s and a single fluorescence measurement, melting curve program (60° C.-95° C., with a heating rate of 0.1° C./s and continuous fluorescence measurement) and a final cooling step to 40° C. All PCR reactions were performed using the QuantiTect SYBR Green PCR Kit (QIAGEN) in 10 μl reactions containing […] of forward and reverse primers, 5 μl of QuantiTect Master Mix and 4 μl of cDNA (diluted 1 in 5). […]

iNOS protein in BMDM = experiment: iNOS expression in shRNA infected BMDM (Western blot)
Protocol: Bone marrow-derived macrophages were generated as described and re-plated at 1.0×10^6 cells/well on 6-well plates (Costar) in DME containing 10% FCS and 20% L-cell conditioned media. Cells were incubated with IFNγ and LPS as described, and lysed in KALB lysis buffer (Nicholson et al., 1995) containing protease inhibitors (Complete Cocktail tablets, Roche), 1 mM phenylmethylsulphonyl fluoride, 1 mM Na3VO4 and 1 mM NaF. Proteins were immunoprecipitated using anti-Flag antibody conjugated to Sepharose (M2; EASTMAN KODAK). Proteins were separated by sodium dodecyl sulphatepolyacrylamide gel electrophoresis (SDS-PAGE) under reducing conditions and electrophoretically transferred to Biotrace PVDF membranes (Pall Corp. Ann Arbor, Mich.). Membranes were blocked overnight in 10% w/v skim milk and incubated with primary antibody for 2 h. Antibody binding was visualized with either peroxidase-conjugated goat anti-rat immunoglobulin (Southern Biotech) or peroxidase-conjugated sheep anti-rabbit immunoglobulin (Chemicon, Melbourne, Australia), and the enhanced chemiluminescence (ECL) system (Amersham, Little Chalfont, Buckinghamshire, UK). To re-blot, the membrane was first stripped of antibodies in 0.1 M glycine, pH 2.9.
Oligonucleotides targeting SPSB 1 ([…] (SEQ ID NO:84)) were designed as previously described (27). shRNAmir constructs were created by annealing the oligonucleotides in 5× annealing buffer (0.5 M potassium acetate, 0.01 M magnesium acetate and 0.15 M HEPES pH 7.4) for 5 min at 95° C., followed by incubation for 10 min at 80° C. and a 5-7 h ramp from 80° C. to 4° C. (reducing by 0.5° C. every 2.5 min). Annealed oligonucleotides were subsequently subcloned into the LMP vector (Dickins et al; 2005 & 2006). Non-sense shRNAmir and luciferase control constructs in the LMS vector were a kind gift from Dr. Marnie Blewitt (Majewski et al, 2008) and Dr Ross Dickins (unpublished data) respectively. To create retrovirus, 293T cells were transfected as described previously (Majewski et al, 2008). The medium was replaced with DMEM containing 10% FBS and 20% L-cell conditioned medium 24 h after transfection and viral supernatants harvested the following day. Total bone marrow was collected and non-adherent haematopoietic cells were harvested by centrifugation and red blood cells removed by washing in red cell removal buffer (154.4 mM NH4Cl, 0.1 mM EDTA, 12 mM. NaHCO3). Retroviral supernatants were applied to culture dishes pre-treated with 32 μg/ml RetroNectin (Takara Biosciences, Shiga, Japan) and centrifuged for 1 h at 4000 g at 4° C. […]
To analyse the kinetics of iNOS induction in BMDM infected with an Spsb1 shRNA construct cells were stimulated with 100 ng/ml LPS or 25 μg/ml PolyIC for various times, then lysed and iNOS expression analysed by Western blot. […]

NO production in BMDM = experiment: Nitric oxide production in shRNA infected BMDM (Griess assay)
Protocol: As a measure of nitric oxide production, 100 μl of culture supernatants were assayed for nitrite by reaction with 10 μl of Griess reagent A (1% sulfanilamide in 5% phosphoric acid) for 10 min at room temperature, followed by the addition of 10 μl Griess reagent B [0.14% N-(1-naphthyl)ethylenediamine dihydrochloride], and nitrite content determined essentially as described (Scott et al., 2000).
Oligonucleotides targeting SPSB 1 ([…] (SEQ ID NO:84)) were designed as previously described (27). shRNAmir constructs were created by annealing the oligonucleotides in 5× annealing buffer (0.5 M potassium acetate, 0.01 M magnesium acetate and 0.15 M HEPES pH 7.4) for 5 min at 95° C., followed by incubation for 10 min at 80° C. and a 5-7 h ramp from 80° C. to 4° C. (reducing by 0.5° C. every 2.5 min). Annealed oligonucleotides were subsequently subcloned into the LMP vector (Dickins et al; 2005 & 2006). Non-sense shRNAmir and luciferase control constructs in the LMS vector were a kind gift from Dr. Marnie Blewitt (Majewski et al, 2008) and Dr Ross Dickins (unpublished data) respectively. To create retrovirus, 293T cells were transfected as described previously (Majewski et al, 2008). The medium was replaced with DMEM containing 10% FBS and 20% L-cell conditioned medium 24 h after transfection and viral supernatants harvested the following day. Total bone marrow was collected and non-adherent haematopoietic cells were harvested by centrifugation and red blood cells removed by washing in red cell removal buffer (154.4 mM NH4Cl, 0.1 mM EDTA, 12 mM. NaHCO3). Retroviral supernatants were applied to culture dishes pre-treated with 32 μg/ml RetroNectin (Takara Biosciences, Shiga, Japan) and centrifuged for 1 h at 4000 g at 4° C. Bone marrow cells were infected by co-culturing with the virus in the presence of 4 μg/ml 30 polybrene-containing medium for 24 h. […]
Using a Griess assay, NO production was measured in response to 20 ng/ml LPS and 25 μg/ml PolyIC in BMDM infected with non-sense or Spsb1 shRNA at 24 h and 48 h. […]

CC(C)C[C@@H](C=O)NC(=O)[C@H](CC(C)C)NC(=O)[C@H](CC(C)C)NC(=O)OCc1ccccc1 [MG-132] (Cbz-Leu-Leu-Leu-aldehyde)
effect on enhanced iNOS degradation [1]: abrogated

Spsb1 shRNA: retroviral shRNAmir construct targeting SPSB1, CCAGATGCAGAGAATAAACTA (SEQ ID NO:84), in LMP vector
Spsb1 expression (Spsb1 mRNA): significantly reduced
kinetics of iNOS clearance (iNOS protein in BMDM; 20 ng/ml LPS or 25 μg/ml PolyIC overnight, stimulus removed): essentially unchanged
iNOS amount in degradation experiment (iNOS protein in BMDM; 20 ng/ml LPS or 25 μg/ml PolyIC overnight, stimulus removed, compared to non-sense): increased amount of iNOS
iNOS protein amount during induction timecourse (iNOS protein in BMDM; 100 ng/ml LPS or 25 μg/ml PolyIC): more iNOS protein
time of first observed iNOS expression post-treatment (iNOS protein in BMDM; 100 ng/ml LPS or 25 μg/ml PolyIC, non-sense shRNA control 8 h): 6 h
NO production (NO production in BMDM; 24 h, LPS and PolyIC, compared to non-sense): increase
NO production (NO production in BMDM; 48 h, LPS, p=0.0446): significant increase
NO production (NO production in BMDM; 48 h, PolyIC): increase
